From ChEMBL document CHEMBL4616664, “Antineoplastic Agents. 607. Emetine Auristatins” (2020)
Where a name gives a salt, the structure may show the parent alone.

How the values were obtained:
Format in all cases: functional
[1] = tested on: SF-268; assay: Growth inhibition of human SF268 cells incubated for 48 hrs by sulforhodamine B assay; details: SF-268, 48 h
[2] = tested on: DU-145; assay: Growth inhibition of human DU145 cells incubated for 48 hrs by sulforhodamine B assay; details: DU-145, 48 h
[3] = tested on: KM-20L2; assay: Growth inhibition of human KM20L2 cells incubated for 48 hrs by sulforhodamine B assay; details: KM-20L2, 48 h
[4] = tested on: BXPC-3; assay: Growth inhibition of human BxPC3 cells incubated for 48 hrs by sulforhodamine B assay; details: BXPC-3, 48 h
[5] = tested on: NCI-H460; assay: Growth inhibition of human NCI-H460 cells incubated for 48 hrs by sulforhodamine B assay; details: NCI-H460, 48 h
[6] = tested on: MCF7; assay: Growth inhibition of human MCF7 cells incubated for 48 hrs by sulforhodamine B assay; details: MCF7, 48 h
[7] = tested on: Panel NCI-60 (60 carcinoma cell lines); assay: Growth inhibition of human NCI60 cells

CC[C@H]1CN2CCc3cc(OC)c(OC)cc3[C@@H]2C[C@@H]1C[C@@H]1c2cc(OC)c(OC)cc2CCN1C(=O)[C@H](C)[C@@H](OC)[C@@H]1CCCN1C(=O)C[C@@H](OC)[C@H]([C@@H](C)CC)N(C)C(=O)[C@@H](NC(=O)[C@H](C(C)C)N(C)C)C(C)C
GI50 [1]: 30.2 nM
GI50 [2]: 12.3 nM
GI50 [3]: 35.8 nM
GI50 [4]: 386 nM
GI50 [5]: 198 nM
GI50 [6]: 35.8 nM

CC[C@H]1CN2CCc3cc(OC)c(OC)cc3[C@@H]2C[C@@H]1C[C@@H]1c2cc(OC)c(OC)cc2CCN1CCNC(=O)[C@H](C)[C@@H](OC)[C@@H]1CCCN1C(=O)C[C@@H](OC)[C@H]([C@@H](C)CC)N(C)C(=O)[C@@H](NC(=O)[C@H](C(C)C)N(C)C)C(C)C
GI50 [1]: 272 nM
GI50 [2]: 181 nM
GI50 [3]: 362 nM
GI50 [4]: 1900 nM
GI50 [5]: 4530 nM
GI50 [6]: 118 nM

CC[C@H]1CN2CCc3cc(OC)c(OC)cc3[C@@H]2C[C@@H]1C[C@@H]1c2cc(OC)c(OC)cc2CCN1C(=O)CCN.O=C(O)C(F)(F)F.O=C(O)C(F)(F)F
GI50 [1]: > 10 µg/mL
GI50 [2]: 10.1 µg/mL
GI50 [3]: > 10 µg/mL
GI50 [4]: 10.3 µg/mL
GI50 [5]: > 10 µg/mL
GI50 [6]: > 10 µg/mL

CC[C@H]1CN2CCc3cc(OC)c(OC)cc3[C@@H]2C[C@@H]1C[C@@H]1c2cc(OC)c(OC)cc2CCN1C(=O)CCNC(=O)[C@H](C)[C@@H](OC)[C@@H]1CCCN1C(=O)OC(C)(C)C
GI50 [1]: > 10 µg/mL
GI50 [2]: 10 µg/mL
GI50 [3]: > 10 µg/mL
GI50 [4]: > 10 µg/mL
GI50 [5]: > 10 µg/mL
GI50 [6]: > 10 µg/mL

CC[C@H]1CN2CCc3cc(OC)c(OC)cc3[C@@H]2C[C@@H]1C[C@@H]1c2cc(OC)c(OC)cc2CCN1C(=O)[C@H](C)[C@@H](OC)[C@@H]1CCCN1
GI50 [1]: 3650 nM
GI50 [2]: 3420 nM
GI50 [3]: 3420 nM
GI50 [4]: 2390 nM
GI50 [5]: 5700 nM
GI50 [6]: 1600 nM

CC[C@H]1CN2CCc3cc(OC)c(OC)cc3[C@@H]2C[C@@H]1C[C@H]1NCCc2cc(OC)c(OC)cc21 [EMETINE HYDROCHLORIDE]
GI50 [2]: 36.1 nM
GI50 [3]: 47 nM
GI50 [4]: 56 nM
GI50 [6]: 54.2 nM

CC[C@H]1CN2CCc3cc(OC)c(OC)cc3[C@@H]2C[C@@H]1C[C@@H]1c2cc(OC)c(OC)cc2CCN1C(=O)CCNC(=O)OC(C)(C)C
GI50 [1]: > 10 µg/mL
GI50 [2]: > 10 µg/mL
GI50 [3]: > 10 µg/mL
GI50 [4]: > 10 µg/mL
GI50 [5]: > 10 µg/mL
GI50 [6]: 10 µg/mL

CC[C@H]1CN2CCc3cc(OC)c(OC)cc3[C@@H]2C[C@@H]1C[C@H]1NCCc2cc(OC)c(OC)cc21 [EMETINE]
GI50 [7]: 27 nM

CC[C@H]1CN2CCc3cc(OC)c(OC)cc3[C@@H]2C[C@@H]1C[C@@H]1c2cc(OC)c(OC)cc2CCN1C(=O)CCNC(=O)[C@H](C)[C@@H](OC)[C@@H]1CCCN1C(=O)C[C@@H](OC)[C@H]([C@@H](C)CC)N(C)C(=O)[C@@H](NC(=O)[C@H](C(C)C)N(C)C)C(C)C
GI50 [1]: 186 nM
GI50 [2]: 97.2 nM
GI50 [3]: 194 nM
GI50 [4]: 3800 nM
GI50 [5]: 2830 nM
GI50 [6]: 159 nM
